Structures can show the parent of a compound that is named as a salt.
Target: T1, human D3 dopamine receptors (Homo sapiens, UniProt P35462)
T1 construct: expressed in transfected cells; host or cells: CHO cells
Assay: [125I] iodosulpride displacement binding to cloned human D3 dopamine receptors expressed in CHO cells
Conditions: displacement of 0.1 nM [125I] iodosulpride, CHO cell membranes, 30 min at 37° C.; read-out: IC50 values at the human D3 receptor
Protocol: The inhibition constants (Ki) of test compounds for displacement of [^125 I] iodosulpride binding to human D2 and D3 dopamine receptors expressed in CHO cells have been determined. […] Cultures were grown as monolayers or in suspension in standard cell culture media. Cells were recovered by scraping (from monolayers) or by centrifugation (from suspension cultures), and were washed two or three times by suspension in phosphate buffered saline followed by collection by centrifugation. Cell pellets were stored frozen at -40° C. Crude cell membranes were prepared by homogenisation followed by high-speed centrifugation, and characterisation of cloned receptors achieved by radioligand binding.
Cell pellets were gently thawed at room temperature, and resuspended in about 20 volumes of ice-cold 50 mM Tris salts (pH 7.4@37° C.), 20 mM EDTA, 0.2M sucrose. The suspension was homogenised using an Ultra-Turrax at full speed for 15 sec. The homogenate was centrifuged at 18,000 r.p.m for 20 min at 4° C. in a Sorvall RC5C centrifuge. […] The final pellet was resuspended in 50 mM Tris salts (pH 7.4@37° C.), and the protein content determined using bovine serum albumin as a standard (Bradford, M. M. (1976) Anal. Biochem. 72, 248-254). […]
Competition curves were analysed simultaneously whenever possible using non-linear least-squares fitting procedures, capable of fitting one, two or three site models.

T1 sequence (P35462 whole entry): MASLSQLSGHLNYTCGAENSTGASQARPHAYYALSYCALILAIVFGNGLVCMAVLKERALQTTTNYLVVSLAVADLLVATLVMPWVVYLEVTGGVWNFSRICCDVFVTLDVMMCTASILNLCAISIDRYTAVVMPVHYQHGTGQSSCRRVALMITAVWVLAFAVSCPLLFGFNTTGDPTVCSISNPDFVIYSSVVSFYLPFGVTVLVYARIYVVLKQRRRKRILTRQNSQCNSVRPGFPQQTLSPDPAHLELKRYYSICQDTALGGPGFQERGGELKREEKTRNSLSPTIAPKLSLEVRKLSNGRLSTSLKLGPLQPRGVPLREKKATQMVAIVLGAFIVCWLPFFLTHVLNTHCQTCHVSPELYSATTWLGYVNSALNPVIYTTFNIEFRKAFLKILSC

Row | IC50 [nM] | SMILES
1 | < 5 | CCN(Cc1ccc(-c2cc(S(=O)(=O)CC)ccc2OC)[nH]1)C1CCCc2ccccc21 (centres unmarked) [Example 1, 2-(5-Ethylsulfonyl-2-methoxyphenyl)-5-[N-ethyl-N-1-(1,2,3,4-tetrahydronaphthyl)aminomethyl]-1H-pyrrole hydrochloride]
2 | < 5 | CCN(Cc1ccc(-c2cc(S(=O)(=O)CC)ccc2OC)[nH]1)C1CCc2ccccc21 (centres unmarked) [Example 2, 2-(5-Ethylsulfonyl-2-methoxyphenyl)-5-[N-ethyl-N-1-(indanyl)aminomethyl]-1H-pyrrole, hydrochloride]
